Assays:
tgDHFR [1] = target: T1, tgDHFR (Toxoplasma gondii, UniProt Q07422); assay: biochemical
T1 sequence (Q07422 1-610): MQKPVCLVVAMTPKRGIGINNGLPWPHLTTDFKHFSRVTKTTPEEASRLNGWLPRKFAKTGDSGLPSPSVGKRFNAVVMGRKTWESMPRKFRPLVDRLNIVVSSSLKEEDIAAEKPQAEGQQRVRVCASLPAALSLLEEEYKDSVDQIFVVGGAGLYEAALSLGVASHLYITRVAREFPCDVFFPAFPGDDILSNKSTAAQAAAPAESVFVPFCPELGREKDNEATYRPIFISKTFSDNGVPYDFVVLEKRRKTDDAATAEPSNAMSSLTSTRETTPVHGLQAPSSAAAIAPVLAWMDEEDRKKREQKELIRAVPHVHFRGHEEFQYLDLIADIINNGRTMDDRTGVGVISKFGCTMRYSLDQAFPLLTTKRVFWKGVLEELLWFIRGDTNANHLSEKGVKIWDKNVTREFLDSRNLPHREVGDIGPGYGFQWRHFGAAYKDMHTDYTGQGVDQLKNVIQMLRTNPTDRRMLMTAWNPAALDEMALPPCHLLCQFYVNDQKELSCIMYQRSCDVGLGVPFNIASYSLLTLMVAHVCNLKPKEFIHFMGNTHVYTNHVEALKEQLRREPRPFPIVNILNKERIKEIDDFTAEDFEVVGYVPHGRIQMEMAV

pcDHFR [2] = target: T2, pcDHFR (Pneumocystis carinii, UniProt P16184); assay: Inhibition of P. carinii DHFR; type: biochemical
T2 sequence (P16184 1-206): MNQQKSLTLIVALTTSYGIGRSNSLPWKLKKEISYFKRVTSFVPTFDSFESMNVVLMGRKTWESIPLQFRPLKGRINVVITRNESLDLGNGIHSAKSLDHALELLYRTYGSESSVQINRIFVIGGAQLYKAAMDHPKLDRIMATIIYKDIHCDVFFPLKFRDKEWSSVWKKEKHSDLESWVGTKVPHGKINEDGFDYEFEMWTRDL

maDHFR = target: T3, maDHFR (Mycobacterium avium, UniProt O30463); assay: Inhibition of M. avium DHFR; type: biochemical
T3 sequence (O30463 1-181): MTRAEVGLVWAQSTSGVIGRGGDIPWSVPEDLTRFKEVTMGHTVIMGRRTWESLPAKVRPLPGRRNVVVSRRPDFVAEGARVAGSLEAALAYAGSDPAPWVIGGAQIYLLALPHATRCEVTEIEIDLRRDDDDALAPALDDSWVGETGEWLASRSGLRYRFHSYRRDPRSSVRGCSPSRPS

rlDHFR = target: T4, rlDHFR (Rattus norvegicus, UniProt Q920D2); assay: Inhibition of rat liver DHFR; type: biochemical
T4 sequence (Q920D2 1-187): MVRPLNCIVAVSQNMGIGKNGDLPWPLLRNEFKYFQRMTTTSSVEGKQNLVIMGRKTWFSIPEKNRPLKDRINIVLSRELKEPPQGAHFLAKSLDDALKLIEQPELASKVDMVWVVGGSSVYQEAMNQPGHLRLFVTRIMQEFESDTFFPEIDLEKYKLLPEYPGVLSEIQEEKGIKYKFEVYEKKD

pcDHFR [3] = target: T2, pcDHFR; settings: previously reported quinazolines; cited from earlier work
tgDHFR [4] = target: T1, tgDHFR; settings: previously reported quinazolines; cited from earlier work

| SMILES | IC50 (tgDHFR [1]) [nM] | Selectivity ratio rl/tg (IC50 rlDHFR/IC50 tgDHFR) (tgDHFR [1]) | IC50 (pcDHFR [2]) [nM] | Selectivity ratio rl/pc (IC50 rlDHFR/IC50 pcDHFR) (pcDHFR [2]) | IC50 (maDHFR) [nM] | Fold decrease in potency against maDHFR compared to 10 (maDHFR; comparator 10) [fold] | IC50 (rlDHFR) [nM] | Selectivity ratio rl/pc (pcDHFR [3]) | Selectivity ratio rl/tg (tgDHFR [4]) |
| --- | --- | --- | --- | --- | --- | --- | --- | --- | --- |
| COc1ccc(OC)c(CN(CC2CC2)c2ccc3nc(N)nc(N)c3c2)c1 [Compound 12, 2,4-Diamino-6-[N-(2,5-dimethoxybenzyl)-N-cyclopropylmethylamino]quinazoline] | 7.3 | 1.3 | 25 | 0.4 | 16 | 5 | 9.6 | – | – |
| COc1ccc(OC)c(CNc2ccc3nc(N)nc(N)c3c2)c1 [Compound 3] | – | – | – | – | – | – | – | 0.2 | 7 |

From PMC3885247 (Journal of medicinal chemistry, 2008)
